The values below come from US20240390340A1 (INCYTE CORPORATION, priority 2023, published 2024).

Assay [1] concerns the target KRAS G12D (Homo sapiens, UniProt P01116, G12D). Briefly: GDP-GTP exchange assay (bodipy-GDP/GppNHp, SOS1), KRAS G12D. Particulars: bodipy-loaded KRAS G12D 2.5 nM, 4 h pre-incubation; value for the most potent isomer quoted for certain compounds; read-out: G12D (KRAS G12D exchange assay IC50). In kind it is biochemical.
The target of assay [2] is KRAS G12V (Homo sapiens, UniProt P01116, G12V). Briefly: GDP-GTP exchange assay (bodipy-GDP/GppNHp, SOS1), KRAS G12V. In kind it is biochemical. Particulars: KRAS G12V mutant; value for the most potent isomer quoted for certain compounds; read-out: G12V (KRAS G12V exchange assay IC50).

Where only a bound is given, the exact number is not on record here.

As a reminder, the IC50 is the concentration needed to halve the response being measured.

KRAS G12V, sequence (P01116 1-188 isoform P01116-2 G12V): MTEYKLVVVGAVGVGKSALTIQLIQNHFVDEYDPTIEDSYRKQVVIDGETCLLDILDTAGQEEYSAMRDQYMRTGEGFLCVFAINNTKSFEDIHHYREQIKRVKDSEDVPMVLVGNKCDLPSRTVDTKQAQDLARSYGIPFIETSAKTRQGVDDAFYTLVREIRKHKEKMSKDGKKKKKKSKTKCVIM
KRAS G12D, sequence (P01116 1-188 isoform P01116-2 G12D): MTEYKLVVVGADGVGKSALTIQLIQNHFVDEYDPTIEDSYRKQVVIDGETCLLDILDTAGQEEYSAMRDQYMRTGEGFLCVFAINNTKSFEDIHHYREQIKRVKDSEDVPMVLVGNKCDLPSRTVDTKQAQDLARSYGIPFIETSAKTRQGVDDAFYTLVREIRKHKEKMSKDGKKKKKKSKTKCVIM

As for `Cc1cc(C(C)O[C@H]2C[C@H](c3cc4c(C(C)O)nc5c(F)c(-c6cccc(Cl)c6Cl)c(CCC#N)cc5c4n3[C@H]3[C@H]4CN[C@@H]3C4)N(C(=O)C3CC3)C2)ns1` (some centres unmarked) [Example 335], the concentration for half-maximal inhibition (IC50) in assay [1] and in assay [2] was no more than 100 nM throughout.

With `Cc1nc2c(F)c(-c3cccc(Cl)c3Cl)c(CCC#N)cc2c2c1cc([C@H]1C[C@H](OC3CCC(O)CC3)CN1C(=O)C1CC1)n2[C@H]1[C@H]2CN[C@@H]1C2` (some centres unmarked) [Example 336], the IC50 in assay [1] and in assay [2] was no more than 100 nM throughout.

As to `Cc1nc2c(F)c(-c3cccc(Cl)c3Cl)c(CCC#N)cc2c2c1cc([C@H]1C[C@H](OC3CCc4ccccc43)CN1C(=O)C1CC1)n2[C@H]1[C@H]2CN[C@@H]1C2` (some centres unmarked) [Example 337], the half-maximal inhibitory concentration (IC50) was no more than 100 nM in assay [1] and 100 to 1000 nM in assay [2].

`Cc1nc2c(F)c(-c3cccc(Cl)c3Cl)c(CCC#N)cc2c2c1cc([C@H]1C[C@H](OCC3(C#N)CC3)CN1C(=O)C1CC1)n2[C@H]1[C@H]2CN[C@@H]1C2` [Example 338]: the IC50 in assay [1] and in assay [2] was no more than 100 nM each time.

Consider `Cc1nc2c(F)c(-c3cccc(Cl)c3Cl)c(CCC#N)cc2c2c1cc([C@H]1C[C@H](OCC3(C#N)CCC3)CN1C(=O)C1CC1)n2[C@H]1[C@H]2CN[C@@H]1C2` [Example 339], for which the IC50 in assay [1] and in assay [2] was no more than 100 nM in each case.

Regarding `Cc1nc2c(F)c(-c3cccc(Cl)c3Cl)c(CCC#N)cc2c2c1cc([C@H]1C[C@H](Oc3ccn(C(F)F)n3)CN1C(=O)C1CC1)n2[C@H]1[C@H]2CN[C@@H]1C2` [Example 340], the half-maximal inhibitory concentration (IC50) in assay [1] and in assay [2] was no more than 100 nM throughout.

As to `Cc1nc2c(F)c(-c3cccc(Cl)c3Cl)c(CCC#N)cc2c2c1cc([C@H]1C[C@H](Oc3nccs3)CN1C(=O)C1CC1)n2[C@H]1[C@H]2CN[C@@H]1C2` [Example 341], the IC50 in assay [1] and in assay [2] was no more than 100 nM throughout.

`Cc1nc2c(F)c(-c3cccc(Cl)c3Cl)c(CCC#N)cc2c2c1cc([C@H]1C[C@H](n3ccnn3)CN1C(=O)C1CC1)n2[C@H]1[C@H]2CN[C@@H]1C2` [Example 342]: the IC50 in assay [1] and in assay [2] was no more than 100 nM throughout.

With `Cc1cn([C@H]2C[C@H](c3cc4c(C)nc5c(F)c(-c6cccc(Cl)c6Cl)c(CCC#N)cc5c4n3[C@H]3[C@H]4CN[C@@H]3C4)N(C(=O)C3CC3)C2)nn1` [Example 343], the IC50 in assay [1] and in assay [2] was no more than 100 nM throughout.

For the compound `Cc1cnn([C@H]2C[C@H](c3cc4c(C)nc5c(F)c(-c6cccc(Cl)c6Cl)c(CCC#N)cc5c4n3[C@H]3[C@H]4CN[C@@H]3C4)N(C(=O)C3CC3)C2)n1` [Example 344], the half-maximal inhibitory concentration (IC50) in assay [1] and in assay [2] was no more than 100 nM each time.

Turning to `Cc1nc2c(F)c(-c3cccc(Cl)c3Cl)c(CCC#N)cc2c2c1cc([C@H]1C[C@H](n3cc(C#N)nn3)CN1C(=O)C1CC1)n2[C@H]1[C@H]2CN[C@@H]1C2` [Example 345], the IC50 in assay [1] and in assay [2] was no more than 100 nM throughout.

`Cc1nc2c(F)c(-c3cccc(Cl)c3Cl)c(CCC#N)cc2c2c1cc([C@H]1C[C@H](n3ncc(C#N)n3)CN1C(=O)C1CC1)n2[C@H]1[C@H]2CN[C@@H]1C2` [Example 346]: the IC50 in assay [1] and in assay [2] was no more than 100 nM in each case.

For `Cc1nc2c(F)c(-c3cccc(Cl)c3Cl)c(CCC#N)cc2c2c1cc([C@H]1C[C@H](n3cnc(C4CCC4)n3)CN1C(=O)C1CC1)n2[C@H]1[C@H]2CN[C@@H]1C2` [Example 347], the concentration for half-maximal inhibition (IC50) in assay [1] and in assay [2] was no more than 100 nM each time.

For `COC(=O)c1ncn([C@H]2C[C@H](c3cc4c(C)nc5c(F)c(-c6cccc(Cl)c6Cl)c(CCC#N)cc5c4n3[C@H]3[C@H]4CN[C@@H]3C4)N(C(=O)C3CC3)C2)n1` [Example 348], the half-maximal inhibitory concentration (IC50) in assay [1] and in assay [2] was no more than 100 nM throughout.

For `Cc1nc2c(F)c(-c3cccc(Cl)c3Cl)c(CCC#N)cc2c2c1cc([C@H]1C[C@H](n3cnc(-c4ccccc4)n3)CN1C(=O)C1CC1)n2[C@H]1[C@H]2CN[C@@H]1C2` [Example 349], the half-maximal inhibitory concentration (IC50) in assay [1] and in assay [2] was no more than 100 nM in each case.

`Cc1nc(C)n([C@H]2C[C@H](c3cc4c(C)nc5c(F)c(-c6cccc(Cl)c6Cl)c(CCC#N)cc5c4n3[C@H]3[C@H]4CN[C@@H]3C4)N(C(=O)C3CC3)C2)n1` [Example 350]: the IC50 in assay [1] and in assay [2] was no more than 100 nM throughout.

Regarding `Cc1nc2c(F)c(-c3cccc(Cl)c3Cl)c(CCC#N)cc2c2c1cc([C@H]1C[C@H](n3nc(CC#N)nc3C)CN1C(=O)C1CC1)n2[C@H]1[C@H]2CN[C@@H]1C2` [Example 351], the half-maximal inhibitory concentration (IC50) in assay [1] and in assay [2] was no more than 100 nM in each case.

For the compound `COc1cnn([C@H]2C[C@H](c3cc4c(C)nc5c(F)c(-c6cccc(Cl)c6Cl)c(CCC#N)cc5c4n3[C@H]3[C@H]4CN[C@@H]3C4)N(C(=O)C3CC3)C2)c1` [Example 352], the IC50 in assay [1] and in assay [2] was no more than 100 nM in each case.

With `COC(=O)c1cnn([C@H]2C[C@H](c3cc4c(C)nc5c(F)c(-c6cccc(Cl)c6Cl)c(CCC#N)cc5c4n3[C@H]3[C@H]4CN[C@@H]3C4)N(C(=O)C3CC3)C2)c1` [Example 353], the IC50 in assay [1] and in assay [2] was no more than 100 nM each time.

Regarding `Cc1nc2c(F)c(-c3cccc(Cl)c3Cl)c(CCC#N)cc2c2c1cc([C@H]1C[C@H](n3cc(-c4ccccc4)cn3)CN1C(=O)C1CC1)n2[C@H]1[C@H]2CN[C@@H]1C2` [Example 354], the results for the 50% inhibitory concentration (IC50) in assay [1] and in assay [2] were no more than 100 nM and 100 to 1000 nM, respectively.

On to `Cc1cc(C)n([C@H]2C[C@H](c3cc4c(C)nc5c(F)c(-c6cccc(Cl)c6Cl)c(CCC#N)cc5c4n3[C@H]3[C@H]4CN[C@@H]3C4)N(C(=O)C3CC3)C2)n1` [Example 355], for which the IC50 in assay [1] and in assay [2] was no more than 100 nM each time.

Take `Cc1nc2c(F)c(-c3cccc(Cl)c3Cl)c(CCC#N)cc2c2c1cc([C@H]1C[C@H](n3cc4c(n3)CCC4)CN1C(=O)C1CC1)n2[C@H]1[C@H]2CN[C@@H]1C2` [Example 356]: the IC50 in assay [1] and in assay [2] was no more than 100 nM each time.

As for `Cc1nc2c(F)c(-c3cccc(Cl)c3Cl)c(CCC#N)cc2c2c1cc([C@H]1C[C@H](Oc3ccn(C(F)(F)F)n3)CN1C(=O)C1CC1)n2[C@H]1[C@H]2CN[C@@H]1C2` [Example 357], the concentration for half-maximal inhibition (IC50) in assay [1] and in assay [2] was no more than 100 nM in each case.

`Cc1nc(CO[C@H]2C[C@H](c3cc4c(C)nc5c(F)c(-c6cccc(Cl)c6Cl)c(CCC#N)cc5c4n3[C@H]3[C@H]4CN[C@@H]3C4)N(C(=O)C3CC3)C2)sc1C` [Example 358]: the half-maximal inhibitory concentration (IC50) in assay [1] and in assay [2] was no more than 100 nM in each case.

On to `Cc1csc(CO[C@H]2C[C@H](c3cc4c(C)nc5c(F)c(-c6cccc(Cl)c6Cl)c(CCC#N)cc5c4n3[C@H]3[C@H]4CN[C@@H]3C4)N(C(=O)C3CC3)C2)n1` [Example 359], for which the 50% inhibitory concentration (IC50) in assay [1] and in assay [2] was no more than 100 nM in each case.

Regarding `Cc1nc2c(F)c(-c3cccc(Cl)c3Cl)c(CCC#N)cc2c2c1cc([C@H]1C[C@H](OCc3nc4ccccc4s3)CN1C(=O)C1CC1)n2[C@H]1[C@H]2CN[C@@H]1C2` [Example 360], the half-inhibitory concentration (IC50) in assay [1] and in assay [2] was no more than 100 nM each time.

`Cc1nc2c(F)c(-c3cccc(Cl)c3Cl)c(CCC#N)cc2c2c1cc([C@H]1C[C@H](OCc3cc(C(F)(F)F)on3)CN1C(=O)C1CC1)n2[C@H]1[C@H]2CN[C@@H]1C2` [Example 361]: the IC50 in assay [1] and in assay [2] was no more than 100 nM each time.

With `[2H]C([2H])(O[C@H]1C[C@H](c2cc3c(C)nc4c(F)c(-c5cccc(Cl)c5Cl)c(CCC#N)cc4c3n2[C@H]2[C@H]3CN[C@@H]2C3)N(C(=O)C2CC2)C1)c1nccs1` [Example 362], the concentration for half-maximal inhibition (IC50) in assay [1] and in assay [2] was no more than 100 nM each time.

On to `Cc1nc2c(F)c(-c3cccc(Cl)c3Cl)c(CCC#N)cc2c2c1cc([C@H]1C[C@H](OC(C)c3nccs3)CN1C(=O)C1CC1)n2[C@H]1[C@H]2CN[C@@H]1C2` (some centres unmarked) [Example 363], for which the IC50 in assay [1] and in assay [2] was no more than 100 nM throughout.

As for `Cc1nc2c(F)c(-c3cccc(Cl)c3Cl)c(CCC#N)cc2c2c1cc([C@H]1C[C@H](OC3CCOC3)CN1C(=O)C1CC1)n2[C@H]1[C@H]2CN[C@@H]1C2` (some centres unmarked) [Example 364], the 50% inhibitory concentration (IC50) in assay [1] and in assay [2] was no more than 100 nM throughout.

On to `Cc1nc2c(F)c(-c3cccc(Cl)c3Cl)c(CCC#N)cc2c2c1cc([C@H]1C[C@H](O[C@H]3CCOC3)CN1C(=O)C1CC1)n2[C@H]1[C@H]2CN[C@@H]1C2` [Example 365], for which the half-maximal inhibitory concentration (IC50) in assay [1] and in assay [2] was no more than 100 nM in each case.

As for `COC1CN(c2cc(O[C@H]3C[C@H](c4cc5c(C)nc6c(F)c(-c7cccc(Cl)c7Cl)c(CCC#N)cc6c5n4[C@H]4[C@H]5CN[C@@H]4C5)N(C(=O)C4CC4)C3)ccn2)C1` [Example 366], the half-inhibitory concentration (IC50) in assay [1] and in assay [2] was no more than 100 nM in each case.

Consider `COC1CN(c2ccnc(O[C@H]3C[C@H](c4cc5c(C)nc6c(F)c(-c7cccc(Cl)c7Cl)c(CCC#N)cc6c5n4[C@H]4[C@H]5CN[C@@H]4C5)N(C(=O)C4CC4)C3)c2)C1` [Example 367], for which the IC50 in assay [1] and in assay [2] was no more than 100 nM throughout.

Turning to `Cc1nc2c(F)c(-c3cccc(Cl)c3Cl)c(CCC#N)cc2c2c1cc([C@H]1C[C@H](Oc3ccnc(N4CC(OC(F)F)C4)c3)CN1C(=O)C1CC1)n2[C@H]1[C@H]2CN[C@@H]1C2` [Example 368], the IC50 in assay [1] and in assay [2] was no more than 100 nM throughout.

`Cc1nc2c(F)c(-c3cccc(Cl)c3Cl)c(CCC#N)cc2c2c1cc([C@H]1C[C@H](Oc3cc(N4CC(OC(F)F)C4)ccn3)CN1C(=O)C1CC1)n2[C@H]1[C@H]2CN[C@@H]1C2` [Example 369]: the IC50 in assay [1] and in assay [2] was no more than 100 nM throughout.

As for `Cc1nc2c(F)c(-c3cccc(Cl)c3Cl)c(CCC#N)cc2c2c1cc([C@H]1C[C@H](Oc3ccnc(N4CC(C(F)F)C4)c3)CN1C(=O)C1CC1)n2[C@H]1[C@H]2CN[C@@H]1C2` [Example 370], the IC50 in assay [1] and in assay [2] was no more than 100 nM each time.

Take `Cc1nc2c(F)c(-c3cccc(Cl)c3Cl)c(CCC#N)cc2c2c1cc([C@H]1C[C@H](Oc3cc(N4CC(C(F)F)C4)ccn3)CN1C(=O)C1CC1)n2[C@H]1[C@H]2CN[C@@H]1C2` [Example 371]: the concentration for half-maximal inhibition (IC50) in assay [1] and in assay [2] was no more than 100 nM throughout.
